According to patent publication US9603890B2, “Methods for increasing the selective efficacy of gene therapy using CAR peptide and heparan-sulfate mediated macropinocytosis” (Vascular Biosciences, priority 2012, dated 2017):
Like-named read-outs stand apart in the source and are kept apart here. Where no end group is shown, it is not given here.

What was measured:
[1] = molecular target: T1, Heparinase I (EC 4.2.2.7) (Pedobacter heparinus, UniProt Q05819); details: heparan sulfate moiety as substrate; cited from earlier work
T1 sequence (Q05819 22-384): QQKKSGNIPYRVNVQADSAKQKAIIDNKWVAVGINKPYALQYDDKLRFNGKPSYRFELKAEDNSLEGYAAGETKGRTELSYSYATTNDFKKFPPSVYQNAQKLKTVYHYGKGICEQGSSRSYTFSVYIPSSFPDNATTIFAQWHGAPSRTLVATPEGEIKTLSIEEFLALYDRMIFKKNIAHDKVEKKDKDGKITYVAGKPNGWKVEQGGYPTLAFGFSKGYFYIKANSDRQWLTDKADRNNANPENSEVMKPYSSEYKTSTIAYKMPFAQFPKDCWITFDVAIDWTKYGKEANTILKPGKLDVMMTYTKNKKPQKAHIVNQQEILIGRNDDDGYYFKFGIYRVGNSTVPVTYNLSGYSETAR

[2] = molecular target: T2, Heparanase (EC 3.2.1.166) (Homo sapiens, UniProt Q9Y251); details: heparan sulfate moiety as substrate; cited from earlier work
T2 sequence (Q9Y251 158-543 limits assumed): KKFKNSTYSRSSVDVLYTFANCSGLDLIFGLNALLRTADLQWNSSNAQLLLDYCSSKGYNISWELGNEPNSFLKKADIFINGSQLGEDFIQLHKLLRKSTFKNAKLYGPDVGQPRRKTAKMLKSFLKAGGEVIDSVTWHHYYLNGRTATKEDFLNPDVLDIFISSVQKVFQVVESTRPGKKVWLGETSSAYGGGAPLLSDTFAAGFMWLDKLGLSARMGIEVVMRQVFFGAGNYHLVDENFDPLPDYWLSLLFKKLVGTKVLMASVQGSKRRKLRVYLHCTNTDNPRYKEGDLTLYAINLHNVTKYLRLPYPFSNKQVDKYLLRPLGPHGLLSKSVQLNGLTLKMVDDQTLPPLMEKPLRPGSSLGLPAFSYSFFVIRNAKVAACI
T2 sequence (Q9Y251 36-109 limits assumed): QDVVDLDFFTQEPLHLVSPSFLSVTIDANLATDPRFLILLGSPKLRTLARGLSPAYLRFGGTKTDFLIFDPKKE

[3] = Cell internalization and tissue penetration of truncated CAR versus CAR; type: cell-based
[4] = test system: rats with severe occlusive pulmonary hypertension induced by Sugen injection followed by hypoxia; assay: MFN2 adenovirus gene therapy alone or co-administered with CAR peptide in severe occlusive PAH rats; type: in vivo, rat
Source text: CAR peptide was able to exert its disease-selective adjuvant properties by allowing enhanced viral delivery and uptake of gene product (MFN2) in an animal model of severe occlusive PAH in rats. (A) Figure showing the effect of MFN2 GTx administered alone when compared to control and diseased animal not given MFN2 Gtx. Statistical significance was examined using ANOVA (see Supplement for further statistical information). (B) Change in mitofusion-2 mRNA levels relative to control. […] (D) mPAP (mmHg) levels in Sugen hypoxia rats.
Adenoviruses were used as viral delivery vectors to incorporate cDNA inserts of MFN2 into rats with severe occlusive pulmonary hypertension induced by Sugen injection followed by hypoxia (FIG. 1).
The MFN2 gene encodes the mitofusion-2 protein, which is a mitochondrial membrane protein that participates in mitochondrial fusion. Mitofusion-2 contributes to the maintenance and operation of the mitochondrial network, and is involved in the regulation of vascular smooth muscle cell (VSMC) proliferation. […] Successful delivery and uptake of the MFN2 gene via adenovirus delivery vector into diseased cells results in increased expression of the mitofusion-2 protein, regulation of VSMC proliferation, and a subsequent decrease in disease indicators. […]

[5] = test system: Chinese hamster ovary cells; details: cited from earlier work
[6] = test system: animal models of pulmonary arterial hypertension (PAH); details: cited from earlier work

What does the source list for “2-O-sulfo-α-L-iduronic acid-2-deoxy-2-acetamido-α-D-glucopyranosyl [IdoA2S-GlcNS]”?
Heparinase I cleavage (EC 4.2.2.7) [1]: Yes; Heparanase cleavage (EC 3.2.1.166) [2]: No

Which “potency for cell internalization and tissue penetration versus parent peptide CAR” value [3] does the source give for CARSKNK [tCAR, truncated form of CAR] here?
The value was “more potent”.

For “CARSKNKDC (also: cyclic, type not given here)”, which “increase in gene therapy transfected gene expression” value [4] is on record?
The value was 7 ×.

And the “binding of CAR to Chinese hamster ovary cells” value ([5]; cells treated with heparinase I and III)?
The value was “greatly reduced”.

What about the “binding of CAR to Chinese hamster ovary cells” value ([5]; cells treated with heparinase I) of the same substance?
The value was “greatly reduced”.

And the “increase in selective vasodilation” value ([6]; CAR co-administered with vasodilators)?
Its value is “approximately 2 ×”.

And the “increase in co-administered drug concentration” value ([6]; in vivo)?
The value was 2 ×.
